# From patent publication US20260294915A1, “COMBINATION THERAPY COMPRISING A MAT2A INHIBITOR AND A TOPOISOMERASE INHIBITOR, A SPLICING INHIBITOR SULFONAMIDE, OR A KIF18 INHIBITOR” (IDEAYA BIOSCIENCES, INC., priority 2023, published 2026)
# pIC50: −log10 of the molar value. Read-outs that look alike come from different tables or passages of the source.
# Legend:
# Assay in all cases: 10-day proliferation (CTG), equimolar Compound A + SPLAM (Example 4)
# Format in all cases: cell-based
# [1] = test system: NCI-H520; settings: single agent or 1:1 combo; for IC80: read-out: gIC80; for IC90: read-out: gIC90; for pIC50: Homo sapiens, read-out: gIC50
# Protocol: (§1) A 10-day proliferation assay was performed in a panel of 5 MTAP-deficient and 2 wild type non-small cell lung and bladder cancer cell lines. Optimal cell seeding for all cell lines was determined by assessing the growth over a range of seeding densities in a 384-well format to identify conditions that permitted proliferation for 10 days. Cells were then plated at the optimal seeding density and treated with 20-point, two-fold dilution series of Compound A, the splicing inhibitor sulfonamide (SPLAM), or an equimolar combination of Compound A and the SPLAM. Combinations tested included Compound A in combination with four structurally different SPLAMs. Concentrations tested for Compound A and each SPLAM alone or in combination ranged from 0.04 nM to 20,000 nM. A plate of cells was harvested at the time of compound addition to quantify the number of cells at the start of the combination (T0). For cell quantification, the harvested cells were lysed with Promega CellTiter-Glo (CTG) reagent according to the manufacturer's protocol and the chemiluminescent signal was detected on a Synergy Neo plate reader. CTG estimates cell number through detection of cellular ATP levels. Cells were incubated with the drug combinations at 37° C. with 5% CO2 for 10 days. Cells were then lysed with CTG and the chemiluminescent signal was measured.
# (§2) CTG values obtained after the 10-day treatment were background subtracted and expressed as a percent of the T0 value. Data were plotted against compound concentration and fit with a four-parameter equation to generate dose response curves for each single agent and the equimolar combination. Growth ICx (gICx) values ranging from gIC30 to gIC100 were interpolated from the fitted curves. Synergistic growth inhibition was assessed by determination of Combination Index (CI) values at these various points across the titration using the mutually non-exclusive equation [Chou, 1983; Chou, 1981] shown below where A equals the gICx value of Compound A, B equals the gICx value of the SPLAM, and A+B or B+A equals the gICx value of the equimolar combination. A Combination Index value less than 1.0 was considered synergistic.
# [2] = test system: NCI-H838; settings: single agent or 1:1 combo; for IC80: read-out: gIC80; for IC90: read-out: gIC90; for pIC50: Homo sapiens, read-out: gIC50
# Protocol: as §1, §2
# [3] = test system: RT112/84; settings: single agent or 1:1 combo; for IC80: read-out: gIC80; for IC90: read-out: gIC90; for pIC50: Homo sapiens, read-out: gIC50
# Protocol: as §1, §2
# [4] = test system: SW900; settings: single agent or 1:1 combo; for IC80: read-out: gIC80; for IC90: read-out: gIC90; for pIC50: Homo sapiens, read-out: gIC50
# Protocol: as §1, §2
# [5] = test system: TCCSUP; settings: single agent or 1:1 combo; for IC80: read-out: gIC80; for IC90: read-out: gIC90; for pIC50: Homo sapiens, TCC-SUP, read-out: gIC50
# Protocol: as §1, §2
# [6] = test system: UMUC11; settings: single agent or 1:1 combo; for pIC50: read-out: gIC50; for IC80: read-out: gIC80; for IC90: read-out: gIC90
# Protocol: as §1, §2
# [7] = test system: UMUC5; settings: single agent or 1:1 combo; for pIC50: read-out: gIC50; for IC80: read-out: gIC80; for IC90: read-out: gIC90
# Protocol: as §1, §2
smiles,measurement,setting,value
"Cc1ccc(NS(=O)(=O)c2cccc(C#N)c2)c2[nH]cc(C#N)c12 [Compound E7820, 3-cyano-N-(3-cyano-4-methyl-1H-indol-7-yl)benzenesulfonamide]",gIC30,[1]; 10 days,0.484 µM
same,gIC40,[1]; 10 days,0.596 µM
same,gIC60,[1]; 10 days,0.92 µM
same,gIC70,[1]; 10 days,1.214 µM
same,gIC100,[1]; 10 days,20 µM
same,IC80,[1]; 10 days,1840 nM
same,IC90,[1]; 10 days,12000 nM
same,pIC50,"[1]; NCI-H520, 240 h, 10 days",6.13
same,gIC30,[2]; 10 days,328 nM
same,gIC40,[2]; 10 days,357 nM
same,gIC60,[2]; 10 days,0.425 µM
same,gIC70,[2]; 10 days,0.472 µM
same,gIC100,[2]; 10 days,20 µM
same,IC80,[2]; 10 days,539 nM
same,IC90,[2]; 10 days,666 nM
same,pIC50,"[2]; NCI-H838, 240 h, 10 days",6.41
same,gIC30,[3]; 10 days,213 nM
same,gIC40,[3]; 10 days,237 nM
same,gIC60,[3]; 10 days,0.29 µM
same,gIC70,[3]; 10 days,0.326 µM
same,gIC100,[3]; 10 days,10.429 µM
same,IC80,[3]; 10 days,375 nM
same,IC90,[3]; 10 days,466 nM
same,pIC50,"[3]; RT112/84, 240 h, 10 days",6.58
same,gIC30,[4]; 10 days,0.284 µM
same,gIC40,[4]; 10 days,0.29 µM
same,gIC60,[4]; 10 days,0.303 µM
same,gIC70,[4]; 10 days,0.309 µM
same,gIC100,[4]; 10 days,0.362 µM
same,IC80,[4]; 10 days,318 nM
same,IC90,[4]; 10 days,330 nM
same,pIC50,"[4]; SW900, 240 h, 10 days",6.53
same,gIC30,[5]; 10 days,20 µM
same,gIC40,[5]; 10 days,20 µM
same,gIC60,[5]; 10 days,20 µM
same,gIC70,[5]; 10 days,20 µM
same,gIC100,[5]; 10 days,20 µM
same,IC80,[5]; 10 days,20000 nM
same,IC90,[5]; 10 days,20000 nM
same,pIC50,"[5]; 240 h, 10 days",4.70
same,pIC50,"[6]; 240 h, 10 days",6.34
same,gIC30,[6]; 10 days,0.361 µM
same,gIC40,[6]; 10 days,0.404 µM
same,gIC60,[6]; 10 days,0.511 µM
same,gIC70,[6]; 10 days,0.589 µM
same,gIC100,[6]; 10 days,20 µM
same,IC80,[6]; 10 days,713 nM
same,IC90,[6]; 10 days,1010 nM
same,pIC50,"[7]; 240 h, 10 days",6.34
same,gIC30,[7]; 10 days,330 nM
same,gIC40,[7]; 10 days,390 nM
same,gIC60,[7]; 10 days,0.547 µM
same,gIC70,[7]; 10 days,0.673 µM
same,gIC100,[7]; 10 days,20 µM
same,IC80,[7]; 10 days,900 nM
same,IC90,[7]; 10 days,1900 nM
Nc1nc(=O)n(-c2ccccc2Cl)c2nc(C(F)(F)F)ccc12 [Compound A],gIC30,[1]; 10 days,20 µM
same,gIC40,[1]; 10 days,20 µM
same,gIC60,[1]; 10 days,20 µM
same,gIC70,[1]; 10 days,20 µM
same,gIC100,[1]; 10 days,20 µM
same,pIC50,"[1]; NCI-H520, 240 h, 10 days",4.70
same,pIC50,[1]; NCI-H520,4.70
same,gIC30,[1],20 µM
same,gIC40,[1],20 µM
same,gIC60,[1],20 µM
same,gIC70,[1],20 µM
same,gIC100,[1],20 µM
same,gIC30,[2]; 10 days,102 nM
same,gIC40,[2]; 10 days,189 nM
same,gIC60,[2]; 10 days,11.309 µM
same,gIC70,[2]; 10 days,20 µM
same,gIC100,[2]; 10 days,20 µM
same,pIC50,"[2]; NCI-H838, 240 h, 10 days",6.23
same,pIC50,[2]; NCI-H838,6.23
same,gIC30,[2],102 nM
same,gIC40,[2],189 nM
same,gIC60,[2],11.309 µM
same,gIC70,[2],20 µM
same,gIC100,[2],20 µM
same,gIC30,[3]; 10 days,345 nM
same,gIC40,[3]; 10 days,1111 nM
same,gIC60,[3]; 10 days,12.951 µM
same,gIC70,[3]; 10 days,20 µM
same,gIC100,[3]; 10 days,20 µM
same,pIC50,"[3]; RT112/84, 240 h, 10 days",5.47
same,pIC50,[3]; RT112/84,5.47
same,gIC30,[3],345 nM
same,gIC40,[3],1111 nM
same,gIC60,[3],12.951 µM
same,gIC70,[3],20 µM
same,gIC100,[3],20 µM
same,gIC30,[4]; 10 days,19.994 µM
same,gIC40,[4]; 10 days,20 µM
same,gIC60,[4]; 10 days,20 µM
same,gIC70,[4]; 10 days,20 µM
same,gIC100,[4]; 10 days,20 µM
same,pIC50,"[4]; SW900, 240 h, 10 days",4.70
same,pIC50,[4]; SW900,4.70
same,gIC30,[4],19.994 µM
same,gIC40,[4],20 µM
same,gIC60,[4],20 µM
same,gIC70,[4],20 µM
same,gIC100,[4],20 µM
same,gIC30,[5]; 10 days,14.461 µM
same,gIC40,[5]; 10 days,19.467 µM
same,gIC60,[5]; 10 days,20 µM
same,gIC70,[5]; 10 days,20 µM
same,gIC100,[5]; 10 days,20 µM
same,pIC50,"[5]; 240 h, 10 days",4.70
same,pIC50,[5],4.70
same,gIC30,[5],14.461 µM
same,gIC40,[5],19.467 µM
same,gIC60,[5],20 µM
same,gIC70,[5],20 µM
same,gIC100,[5],20 µM
same,pIC50,"[6]; 240 h, 10 days",4.70
same,gIC30,[6]; 10 days,20 µM
same,gIC40,[6]; 10 days,20 µM
same,gIC60,[6]; 10 days,20 µM
same,gIC70,[6]; 10 days,20 µM
same,gIC100,[6]; 10 days,20 µM
same,gIC30,[6],20 µM
same,gIC40,[6],20 µM
same,gIC60,[6],20 µM
same,gIC70,[6],20 µM
same,gIC100,[6],20 µM
same,pIC50,[6],4.70
same,pIC50,"[7]; 240 h, 10 days",5.37
same,gIC30,[7]; 10 days,420 nM
same,gIC40,[7]; 10 days,1291 nM
same,gIC60,[7]; 10 days,13.142 µM
same,gIC70,[7]; 10 days,20 µM
same,gIC100,[7]; 10 days,20 µM
same,gIC30,[7],420 nM
same,gIC40,[7],1291 nM
same,gIC60,[7],13.142 µM
same,gIC70,[7],20 µM
same,gIC100,[7],20 µM
same,pIC50,[7],5.37
"NS(=O)(=O)c1ccc(S(=O)(=O)Nc2cccc3c(Cl)c[nH]c23)cc1 [Indisulam, N-(3-chloro-1H-indol-7-yl)benzene-1,4-disulfonamide]",gIC30,[1]; 10 days,0.47 µM
same,gIC40,[1]; 10 days,0.546 µM
same,gIC60,[1]; 10 days,0.743 µM
same,gIC70,[1]; 10 days,0.897 µM
same,gIC100,[1]; 10 days,20 µM
same,IC80,[1]; 10 days,1160 nM
same,IC90,[1]; 10 days,2070 nM
same,pIC50,"[1]; NCI-H520, 240 h, 10 days",6.20
same,gIC30,[2]; 10 days,276 nM
same,gIC40,[2]; 10 days,300 nM
same,gIC60,[2]; 10 days,0.355 µM
same,gIC70,[2]; 10 days,0.393 µM
same,gIC100,[2]; 10 days,20 µM
same,IC80,[2]; 10 days,448 nM
same,IC90,[2]; 10 days,551 nM
same,pIC50,"[2]; NCI-H838, 240 h, 10 days",6.49
same,gIC30,[3]; 10 days,249 nM
same,gIC40,[3]; 10 days,273 nM
same,gIC60,[3]; 10 days,0.327 µM
same,gIC70,[3]; 10 days,0.363 µM
same,gIC100,[3]; 10 days,20 µM
same,IC80,[3]; 10 days,414 nM
same,IC90,[3]; 10 days,510 nM
same,pIC50,"[3]; RT112/84, 240 h, 10 days",6.53
same,gIC30,[4]; 10 days,0.295 µM
same,gIC40,[4]; 10 days,0.3 µM
same,gIC60,[4]; 10 days,0.31 µM
same,gIC70,[4]; 10 days,0.315 µM
same,gIC100,[4]; 10 days,0.357 µM
same,IC80,[4]; 10 days,321 nM
same,IC90,[4]; 10 days,331 nM
same,pIC50,"[4]; SW900, 240 h, 10 days",6.52
same,gIC30,[5]; 10 days,20 µM
same,gIC40,[5]; 10 days,20 µM
same,gIC60,[5]; 10 days,20 µM
same,gIC70,[5]; 10 days,20 µM
same,gIC100,[5]; 10 days,20 µM
same,IC80,[5]; 10 days,20000 nM
same,IC90,[5]; 10 days,20000 nM
same,pIC50,"[5]; 240 h, 10 days",4.70
same,pIC50,"[6]; 240 h, 10 days",6.33
same,gIC30,[6]; 10 days,0.369 µM
same,gIC40,[6]; 10 days,0.417 µM
same,gIC60,[6]; 10 days,0.539 µM
same,gIC70,[6]; 10 days,0.628 µM
same,gIC100,[6]; 10 days,20 µM
same,IC80,[6]; 10 days,769 nM
same,IC90,[6]; 10 days,1110 nM
same,pIC50,"[7]; 240 h, 10 days",6.38
same,gIC30,[7]; 10 days,310 nM
same,gIC40,[7]; 10 days,363 nM
same,gIC60,[7]; 10 days,0.487 µM
same,gIC70,[7]; 10 days,0.574 µM
same,gIC100,[7]; 10 days,20 µM
same,IC80,[7]; 10 days,707 nM
same,IC90,[7]; 10 days,990 nM
